From patent US9440941B2, “Substituted chroman-6-yloxy-cycloalkanes and their use as pharmaceuticals” (SANOFI, priority 2013, dated 2016)
Where a name gives a salt, the structure may show the parent alone.

target: T1, human NCX1 (Homo sapiens, UniProt P32418); assay: Inhibition of Ca2+ influx into cells (NCX1 reverse mode), FLIPR Fluo-4 assay; type: cell-based; conditions: inhibition of NCX1 in reverse mode (Ca2+ influx into cells); read-out: NCX1rv IC50
T1 construct: expressed in transfected cells
Excerpt: The sodium/calcium exchanger NCX1 can transport calcium ions and sodium ions through the cell membrane. The transport is an exchange of Ca^2+ and Na^+ in two directions depending on membrane potential and ion gradients. At the first direction, named “forward mode” or “calcium export mode”, Ca^2+ is transported out of the cell and Na^+ is transported into the cell. At the other direction, named “reverse mode” or “calcium import mode”, the transport directions are vice versa. The effect of the compounds of the invention on NCX1 was determined in CHO cells stably expressing human NCX1 (gene symbol SLC8A1; cf. WO 2009/115238). The assay is based on the monitoring of intracellular Ca^2+ concentrations using a calcium-sensitive fluorescence dye which is detected by means of a FLIPR device (Fluorimetric Imaging Plate Reader, Molecular Devices).
Assay Technology—Reverse Mode
The assay is based on the monitoring of intracellular Ca^2+ concentrations using the calcium-sensitive dye Fluo-4. CHO cells expressing NCX1 were loaded with the dye by means of the acetoxymethyl ester Fluo-4 AM (Invitrogen, F14202), which is cleaved intracellularly by esterase activity to yield the charged species of free Fluo-4. After an preincubation period with the test compound, Gramicidine (Sigma, G5002) was added. Gramicidine is an ionophor for Na^+ ions mediating an increase of intracellular Na^+ ions. Consequently, intracellular Na^+ ions are exchanged against extracellular Ca^2+ ions (Ca^2+ influx, reverse mode). The intracellular elevation of Ca^2+ ions was detected by measuring the fluorescence of Fluo-4 at a wavelength of 520 nm by a FLIPR device.
Briefly, for the reverse mode transport assay 18000 cells per well were seeded into a 96 well microplate (Corning COSTAR 3904) and incubated overnight in culture medium (1× Nut Mix F12 (Ham) (Gibco, 21765-029); 10% (v/v) fetal calf serum (PAA Gold, A15-649); 450 μg/ml Geneticin (Gibco, 10131-027)). A total volume of 100 μl medium per well was used. For the preparation of the FLIPR assay, the culture medium was removed from the plates and 100 μl of dye solution (2 μM Fluo-4 AM; 0.02% (v/v) Pluronic F-127 (20%, Invitrogen, P3000MP); 0.1% (v/v) bovine albumin solution (30% (v/v), Sigma, A9205) in assay buffer (133.8 mM NaCl (Sigma, S5886); 4.7 mM KCl (Sigma, P3911); 1.25 mM MgCl2 (Merck, 1.05833.0250); 3.5 mM CaCl2 (Merck, 1.02083.0250); 5 mM glucose (Sigma, G7021); 10 mM Hepes (Sigma, H4034); 0.01% (v/v) Pluronic F-127 (5%, Sigma, P2443); 2.5 mM Probenecid (Maybridge, SB00915EB); pH 7.4)) were added into each well. The plates were incubated in the dark at room temperature for 80 min. After the incubation period, the dye solution was removed and the wells were washed with 100 μl of assay buffer. Then 80 μl of a solution of the test compound in assay buffer in different concentrations were added into the wells. The plates were incubated at 16° C. for 45 min. Meanwhile a 60 μM solution of Gramicidine in assay buffer (4° C.) was prepared and stored in the wells of a 96 well microplate (96 well microplate, polypropylene, U-shape (Greiner Bio-One, 650201)) at 4° C. until measurement was started. The fluorescence monitoring was performed at 240 measuring points with measurement intervals of 2 sec. After the fifth measuring point, 40 μl of the Gramicidine solution were added to each well of the assay plates to give a final Gramicidine concentration of 20 μM. For the determination of the IC50 values the minimal fluorescence value was subtracted from the maximal fluorescence value for all measuring points. The calculation of the IC50 values via the percentage inhibitions of Ca^2+ influx into cells (reverse mode) effected by the test compound was performed in Biost@t Speed 2.0.

Row | IC50 [nM] | SMILES
1 | 100 | Cc1c(F)cccc1C1CCc2cc(OC3CCC(C(=O)NC4CCCCC4O)CC3)ccc2O1 (single isomer, unassigned) [compound 287]
2 | 400 | COC(=O)CNC(=O)C1CCC(Oc2ccc3c(c2)CCC(c2ccccc2)O3)CC1 (single isomer, unassigned; stereoisomer 1) [compound 91, Methyl 2-{[cis-4-(2-phenylchroman-6-yloxy)cyclohexanecarbonyl]amino}acetate,stereoisomer 1 (2)]
3 | 300 | CCn1nccc1CNC(=O)C1CCC(Oc2ccc3c(c2)CCC(c2ccccc2)O3)CC1 (single isomer, unassigned; stereoisomer 1) [compound 93, N-(2-Ethyl-2H-pyrazol-3-ylmethyl)-[cis-4-(2-phenylchroman-6-yloxy)]-cyclohexanecarboxamide, stereoisomer 1 (2)]
4 | 200 | Cc1nc(CNC(=O)[C@H]2CC[C@@H](Oc3ccc4c(c3)CCC(c3ccccc3)O4)CC2)no1 (single isomer, unassigned; stereoisomer 1) [compound 95, N-(5-Methyl-[1,2,4]oxadiazol-3-ylmethyl)-[4-cis-(2-phenylchroman-6-yloxy)]-cyclohexanecarboxamide, stereoisomer 1 (2)]
5 | 700 | Cc1c(F)cccc1C1CCc2cc(OC3CCC(C(=O)NC4CCCC4O)CC3)ccc2O1 (single isomer, unassigned; stereoisomer 1) [compound 279, 4-[2-(3-Fluoro-2-methyl-phenyl)chroman-6-yloxy]-N-(2-hydroxycyclopentyl)cyclohexane-carboxamide, stereoisomer 1 (2)]
6 | 100 | COC(=O)CNC(=O)C1CCC(Oc2ccc3c(c2)CCC(c2ccccc2)O3)CC1 (single isomer, unassigned; stereoisomer 2) [compound 92, Methyl 2-[[cis-4-[2-phenylchroman-6-yloxy]cyclohexanecarbonyl]amino]acetate,stereoisomer 2 (2)]
7 | 1600 | CCn1nccc1CNC(=O)C1CCC(Oc2ccc3c(c2)CCC(c2ccccc2)O3)CC1 (single isomer, unassigned; stereoisomer 2) [compound 94, N-(2-Ethyl-2H-pyrazol-3-ylmethyl)-[cis-4-(2-phenylchroman-6-yloxy)]-cyclohexanecarboxamide, stereoisomer 2 (2)]
8 | 400 | Cc1nc(CNC(=O)[C@H]2CC[C@@H](Oc3ccc4c(c3)CCC(c3ccccc3)O4)CC2)no1 (single isomer, unassigned; stereoisomer 2) [compound 96, N-(5-Methyl-[1,2,4]oxadiazol-3-ylmethyl)-[4-cis-(2-phenylchroman-6-yloxy)]-cyclohexanecarboxamide, stereoisomer 2 (2)]
9 | 100 | Cc1c(F)cccc1C1CCc2cc(OC3CCC(C(=O)NC4CCCC4O)CC3)ccc2O1 (single isomer, unassigned; stereoisomer 2) [compound 280, 4-[2-(3-Fluoro-2-methyl-phenyl)chroman-6-yloxy]-N-(2-hydroxycyclopentyl)cyclohexane-carboxamide, stereoisomer 2 (2)]
10 | 300 | N[C@H]1CC[C@H](Oc2ccc3c(c2)CCC(c2ccccc2)O3)CC1 (stereo partly drawn) [compound 5, trans-4-(2-Phenylchroman-6-yloxy)cyclohexylamine]
11 | 300 | N[C@H]1CC[C@H](Oc2ccc3c(c2)CC[C@H](c2ccccc2)O3)CC1 [compound 9, hydrochloride]
12 | 300 | N[C@H]1CC[C@H](Oc2ccc3c(c2)CC[C@@H](c2ccccc2)O3)CC1 [compound 10, hydrochloride]
13 | 2800 | CCC(N)C1(CC)CCC(Oc2ccc3c(c2)CCC(c2ccccc2)O3)CC1 (stereo not drawn) [compound 11, hydrochloride]
14 | 200 | NCC(=O)NC1CCC(Oc2ccc3c(c2)CCC(c2ccccc2)O3)CC1 (stereo not drawn) [compound 12, hydrochloride]
15 | 300 | O=C(NCc1ccno1)C1CCC(Oc2ccc3c(c2)CCC(c2ccccc2)O3)CC1 (stereo not drawn) [compound 13]
16 | 400 | CCn1nccc1CNC(=O)C1CCC(Oc2ccc3c(c2)CCC(c2ccccc2)O3)CC1 (stereo not drawn) [compound 14]
17 | 200 | OCCNC1CCC(Oc2ccc3c(c2)CCC(c2ccccc2)O3)CC1 (stereo not drawn) [compound 15]

Row | IC50 [nM] | SMILES
18 | 1300 | CN(C)C(=O)NC1CCC(Oc2ccc3c(c2)CCC(c2ccccc2)O3)CC1 (stereo not drawn) [compound 16]
19 | 1000 | CCCC1(N)CCC(Oc2ccc3c(c2)CCC(c2ccccc2)O3)CC1 (stereo not drawn) [compound 17, hydrochloride]
20 | 500 | CCCN[C@H]1CC[C@H](Oc2ccc3c(c2)CC[C@@H](c2ccccc2)O3)CC1 [compound 18]
21 | 300 | CO[C@H](C)C(=O)N[C@H]1CC[C@H](Oc2ccc3c(c2)CCC(c2ccccc2)O3)CC1 (stereo partly drawn) [compound 23]
22 | 1300 | CCCN(CCC)[C@H]1CC[C@H](Oc2ccc3c(c2)CC[C@@H](c2ccccc2)O3)CC1 [compound 34]
23 | 500 | CSCCCN[C@H]1CC[C@H](Oc2ccc3c(c2)CCC(c2ccccc2)O3)CC1 (stereo partly drawn) [compound 48, N-(3-Methylsulfanylpropyl)-[trans-4-(2-phenylchroman-6-yloxy)]-cyclohexylamine]
24 | 600 | Cc1cc(CN[C@H]2CC[C@H](Oc3ccc4c(c3)CCC(c3ccccc3)O4)CC2)no1 (stereo partly drawn) [compound 49, N-(5-Methylisoxazol-3-ylmethyl)-[trans-4-(2-phenylchroman-6-yloxy)]-cyclohexylamine]
25 | 500 | Cc1csc(CN[C@H]2CC[C@H](Oc3ccc4c(c3)CCC(c3ccccc3)O4)CC2)n1 (stereo partly drawn) [compound 52, N-[(4-Methylthiazol-2-yl)methyl]-[trans-4-(2-phenylchroman-6-yloxy)]-cyclohexylamine]
26 | 500 | c1ccc(C2CCc3cc(O[C@H]4CC[C@H](NCc5ccoc5)CC4)ccc3O2)cc1 (stereo partly drawn) [compound 53, N-(Furan-3-ylmethyl)-[trans-4-(2-phenylchroman-6-yloxy)]-cyclohexylamine]
27 | 500 | Cc1cc(CN[C@H]2CC[C@H](Oc3ccc4c(c3)CCC(c3ccccc3)O4)CC2)nn1C (stereo partly drawn) [compound 56, N-(1,5-Dimethylpyrazol-3-ylmethyl)-[trans-4-(2-phenylchroman-6-yloxy)]-cyclohexylamine]
28 | 500 | Cn1cncc1CN[C@H]1CC[C@H](Oc2ccc3c(c2)CCC(c2ccccc2)O3)CC1 (stereo partly drawn) [compound 57, N-(3-Methylimidazol-4-ylmethyl)-[trans-4-(2-phenylchroman-6-yloxy)]-cyclohexylamine]
29 | 500 | Cc1nc(CN[C@H]2CC[C@H](Oc3ccc4c(c3)CCC(c3ccccc3)O4)CC2)cs1 (stereo partly drawn) [compound 59, N-(2-Methylthiazol-4-ylmethyl)-[trans-4-(2-phenylchroman-6-yloxy)]-cyclohexylamine]
30 | 600 | Cn1cc(Cl)c(CN[C@H]2CC[C@H](Oc3ccc4c(c3)CCC(c3ccccc3)O4)CC2)n1 (stereo partly drawn) [compound 62, N-(4-Chloro-1-methyl-pyrazol-3-ylmethyl)-[trans-4-(2-phenylchroman-6-yloxy)]-cyclohexylamine]
31 | 600 | c1ccc(C2CCc3cc(O[C@H]4CC[C@H](NCC5CCCCC5)CC4)ccc3O2)cc1 (stereo partly drawn) [compound 63, N-(Cyclohexylmethyl)-[trans-4-(2-phenylchroman-6-yloxy)]-cyclohexylamine]
32 | 500 | CSC(C)CCN[C@H]1CC[C@H](Oc2ccc3c(c2)CCC(c2ccccc2)O3)CC1 (stereo partly drawn) [compound 64, N-(3-Methylsulfanylbutyl)-[trans-4-(2-phenylchroman-6-yloxy)]-cyclohexylamine]
33 | 400 | CC(C)CN[C@H]1CC[C@H](Oc2ccc3c(c2)CCC(c2ccccc2)O3)CC1 (stereo partly drawn) [compound 65, N-Isobutyl-[trans-4-(2-phenylchroman-6-yloxy)]-cyclohexylamine]
